One block for each molecule: values may come before it. Calls of active or inactive are those of the source.
Tests used:
[1] = target: Voltage-gated inwardly rectifying potassium channel KCNH2 (Homo sapiens, UniProt Q12809); assay: hERG protection from proarrhythmic block, potency, dose response, cell-based, thallium flux (AID 2121); format: ADME
[2] = target: Peroxisome proliferator-activated receptor gamma/Nuclear receptor coactivator 2 (Homo sapiens, UniProt P37231); assay: (§1) TR-FRET dose response biochemical High Throughput Screening assay for agonists of the steroid receptor coactivator 2 (SRC-2) recruitment by the peroxisome proliferator-activated receptor gamma (PPAR gamma): non-selective agonists. [Related pubchem assays: 1297, 1032 ]; format: functional
Chain of Peroxisome proliferator-activated receptor gamma/Nuclear receptor coactivator 2 (P37231 whole entry): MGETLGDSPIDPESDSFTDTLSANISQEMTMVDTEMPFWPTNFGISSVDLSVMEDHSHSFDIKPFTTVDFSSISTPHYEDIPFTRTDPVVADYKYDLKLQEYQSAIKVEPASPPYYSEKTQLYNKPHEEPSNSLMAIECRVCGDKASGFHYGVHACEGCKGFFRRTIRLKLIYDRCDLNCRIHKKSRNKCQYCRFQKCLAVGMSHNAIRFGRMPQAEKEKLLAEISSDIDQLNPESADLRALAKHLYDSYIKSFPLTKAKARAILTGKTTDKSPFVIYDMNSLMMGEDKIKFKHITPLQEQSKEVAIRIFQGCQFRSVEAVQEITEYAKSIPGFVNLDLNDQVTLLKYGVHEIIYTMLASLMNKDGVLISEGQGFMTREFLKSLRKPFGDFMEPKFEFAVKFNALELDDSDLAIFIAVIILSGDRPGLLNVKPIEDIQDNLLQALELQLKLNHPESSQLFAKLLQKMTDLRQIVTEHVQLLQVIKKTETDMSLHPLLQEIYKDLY
Chain of Peroxisome proliferator-activated receptor gamma/Nuclear receptor coactivator 2 (Q15596 whole entry, further chain): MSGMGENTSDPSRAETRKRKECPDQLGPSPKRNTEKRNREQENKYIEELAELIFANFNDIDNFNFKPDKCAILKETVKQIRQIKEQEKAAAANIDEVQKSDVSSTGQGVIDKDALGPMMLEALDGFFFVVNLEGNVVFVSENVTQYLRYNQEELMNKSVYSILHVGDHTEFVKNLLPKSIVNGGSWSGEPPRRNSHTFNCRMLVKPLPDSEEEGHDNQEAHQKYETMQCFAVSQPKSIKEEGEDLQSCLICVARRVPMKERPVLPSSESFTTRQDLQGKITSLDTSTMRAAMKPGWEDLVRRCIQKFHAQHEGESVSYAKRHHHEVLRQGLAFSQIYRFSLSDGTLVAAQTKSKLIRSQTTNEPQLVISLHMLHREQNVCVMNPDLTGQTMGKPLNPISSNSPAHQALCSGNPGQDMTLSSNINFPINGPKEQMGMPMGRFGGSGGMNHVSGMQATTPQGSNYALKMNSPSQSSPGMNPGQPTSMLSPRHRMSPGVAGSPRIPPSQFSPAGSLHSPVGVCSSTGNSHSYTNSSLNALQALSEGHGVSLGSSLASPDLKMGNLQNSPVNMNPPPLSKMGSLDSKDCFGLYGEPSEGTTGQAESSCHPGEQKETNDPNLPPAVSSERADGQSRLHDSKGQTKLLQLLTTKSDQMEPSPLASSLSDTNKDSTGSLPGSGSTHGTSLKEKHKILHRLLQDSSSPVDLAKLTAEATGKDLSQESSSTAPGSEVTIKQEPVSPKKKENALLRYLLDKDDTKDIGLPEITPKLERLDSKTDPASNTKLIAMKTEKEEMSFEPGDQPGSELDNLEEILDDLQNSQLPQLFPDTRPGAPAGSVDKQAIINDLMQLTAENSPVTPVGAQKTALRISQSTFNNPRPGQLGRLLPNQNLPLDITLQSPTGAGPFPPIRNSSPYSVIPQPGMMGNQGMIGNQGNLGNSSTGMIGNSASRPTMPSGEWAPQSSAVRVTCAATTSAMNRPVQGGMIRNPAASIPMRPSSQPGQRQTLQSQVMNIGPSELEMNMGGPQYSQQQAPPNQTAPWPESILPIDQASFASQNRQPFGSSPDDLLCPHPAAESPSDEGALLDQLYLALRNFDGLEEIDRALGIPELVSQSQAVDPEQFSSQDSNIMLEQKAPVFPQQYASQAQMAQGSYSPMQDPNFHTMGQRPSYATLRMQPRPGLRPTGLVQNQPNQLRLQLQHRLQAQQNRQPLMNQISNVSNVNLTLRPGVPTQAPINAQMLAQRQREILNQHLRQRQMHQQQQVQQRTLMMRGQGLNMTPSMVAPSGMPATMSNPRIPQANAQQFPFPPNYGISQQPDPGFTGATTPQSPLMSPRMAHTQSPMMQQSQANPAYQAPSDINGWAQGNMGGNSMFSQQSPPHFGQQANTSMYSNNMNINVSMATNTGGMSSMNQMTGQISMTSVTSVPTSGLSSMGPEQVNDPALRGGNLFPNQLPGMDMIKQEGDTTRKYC

[3] = target: Photoreceptor-specific nuclear receptor (Homo sapiens, UniProt Q9Y5X4); assay: NR2E3 inverse agonists, dose response, biochemical, TR-FRET (AID 463256); format: functional
[4] = target: Peroxisome proliferator-activated receptor gamma/Nuclear receptor coactivator 1 (Homo sapiens, UniProt P37231); assay: as §1, with “1 (SRC-1)” for “2 (SRC-2)”, “assays (depositor defined):AID1300, AID1808, AID504735, AID631]” for “assays: 1297, 1032 ]”; format: protein assay
[5] = target: Peroxisome proliferator-activated receptor gamma/Nuclear receptor corepressor 2 (Homo sapiens, UniProt P37231+Q9Y618); assay: Counterscreen for NR2E3 inverse agonists: TR-FRET-based biochemical high throughput dose response assay to identify inverse agonists of the interaction between peroxisome proliferator-activated receptor gamma (PPARg) and nuclear receptor co-repressor 2 (NCOR2).; format: functional
[6] = target: Peroxisome proliferator-activated receptor gamma/Nuclear receptor coactivator 3 (Homo sapiens, UniProt P37231); assay: as §1, with “3 (SRC-3)” for “2 (SRC-2)”, “1301 (Confirmation screen.), 1048 (Primary screen.)]” for “1297, 1032 ]”; format: functional
[7] = target: Sphingosine 1-phosphate receptor 2 (Homo sapiens, UniProt O95136); assay: Dose Response Cell Based Assay for Antagonists of the S1P2 Receptor. [Related pubchem assays: 856, 736 ]; format: functional
Chain of Sphingosine 1-phosphate receptor 2 (O95136 whole entry): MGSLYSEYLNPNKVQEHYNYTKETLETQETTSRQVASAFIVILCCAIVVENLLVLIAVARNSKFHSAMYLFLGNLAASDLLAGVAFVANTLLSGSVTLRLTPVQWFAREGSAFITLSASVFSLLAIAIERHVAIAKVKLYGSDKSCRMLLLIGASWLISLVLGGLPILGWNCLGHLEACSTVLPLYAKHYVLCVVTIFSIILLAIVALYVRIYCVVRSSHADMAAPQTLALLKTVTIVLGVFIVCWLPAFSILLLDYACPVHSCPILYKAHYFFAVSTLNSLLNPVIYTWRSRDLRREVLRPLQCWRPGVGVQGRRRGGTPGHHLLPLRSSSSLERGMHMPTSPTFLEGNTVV

[8] = target: Ubiquitin carboxyl-terminal hydrolase BAP1 (Homo sapiens, UniProt Q92560); assay: BAP1 deubiquitinase inhibitors, dose response, biochemical (AID 714); format: functional
Chain of Ubiquitin carboxyl-terminal hydrolase BAP1 (Q92560 whole entry): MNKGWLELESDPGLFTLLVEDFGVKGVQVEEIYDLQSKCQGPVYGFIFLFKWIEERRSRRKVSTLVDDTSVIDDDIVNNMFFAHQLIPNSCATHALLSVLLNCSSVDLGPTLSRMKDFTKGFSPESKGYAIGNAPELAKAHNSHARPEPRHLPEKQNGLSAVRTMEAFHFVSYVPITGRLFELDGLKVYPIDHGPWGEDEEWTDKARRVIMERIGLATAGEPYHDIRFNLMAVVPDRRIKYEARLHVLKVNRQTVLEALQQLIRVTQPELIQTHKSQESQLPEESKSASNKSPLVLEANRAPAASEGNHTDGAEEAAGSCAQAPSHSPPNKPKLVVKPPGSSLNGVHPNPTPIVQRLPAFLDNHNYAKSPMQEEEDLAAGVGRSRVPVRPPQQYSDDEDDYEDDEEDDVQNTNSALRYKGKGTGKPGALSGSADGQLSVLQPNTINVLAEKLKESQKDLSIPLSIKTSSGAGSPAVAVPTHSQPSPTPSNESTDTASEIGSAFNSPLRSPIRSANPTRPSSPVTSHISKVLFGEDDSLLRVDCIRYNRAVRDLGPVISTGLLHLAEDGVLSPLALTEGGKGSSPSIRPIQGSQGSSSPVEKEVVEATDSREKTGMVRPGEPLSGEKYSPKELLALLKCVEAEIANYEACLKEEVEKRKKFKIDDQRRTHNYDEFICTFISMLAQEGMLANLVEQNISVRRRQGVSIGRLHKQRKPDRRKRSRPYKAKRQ

[9] = target: T1, Aryl hydrocarbon receptor (Homo sapiens, UniProt P35869); assay: Luminescence-based cell-based high throughput dose response assay for activators of the Aryl Hydrocarbon Receptor (AHR). [Related pubchem assays: 2796 (Primary screen (AHR activators in singlicate)), 2845 (Confirmation screen (AHR activators in triplicate)), 434939 (Counterscreen (PXR activators in triplicate)), 2804 (Summary (AHR activators))]; format: ADME
T1 sequence (P35869 whole entry): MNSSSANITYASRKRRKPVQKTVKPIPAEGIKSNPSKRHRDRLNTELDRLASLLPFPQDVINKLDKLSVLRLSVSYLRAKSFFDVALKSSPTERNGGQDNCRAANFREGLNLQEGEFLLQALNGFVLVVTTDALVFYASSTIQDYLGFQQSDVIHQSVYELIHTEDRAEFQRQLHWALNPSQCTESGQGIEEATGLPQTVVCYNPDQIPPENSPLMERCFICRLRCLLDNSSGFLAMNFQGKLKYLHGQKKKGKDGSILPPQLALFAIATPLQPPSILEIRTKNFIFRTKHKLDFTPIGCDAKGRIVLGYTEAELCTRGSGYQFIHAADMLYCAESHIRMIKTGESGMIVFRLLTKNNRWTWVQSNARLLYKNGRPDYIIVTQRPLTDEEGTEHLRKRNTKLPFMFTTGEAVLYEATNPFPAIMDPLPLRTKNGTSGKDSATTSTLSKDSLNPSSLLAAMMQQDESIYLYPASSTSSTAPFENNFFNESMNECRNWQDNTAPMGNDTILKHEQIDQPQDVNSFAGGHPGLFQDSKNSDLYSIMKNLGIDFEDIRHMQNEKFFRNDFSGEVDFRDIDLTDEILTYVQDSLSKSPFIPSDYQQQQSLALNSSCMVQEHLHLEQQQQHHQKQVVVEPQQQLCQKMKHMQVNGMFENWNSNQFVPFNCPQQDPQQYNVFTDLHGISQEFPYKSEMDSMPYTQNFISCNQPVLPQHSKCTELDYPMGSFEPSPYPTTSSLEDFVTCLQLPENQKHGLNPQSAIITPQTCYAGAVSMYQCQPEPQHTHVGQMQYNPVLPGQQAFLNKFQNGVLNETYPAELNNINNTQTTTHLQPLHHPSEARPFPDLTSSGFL

[10] = target: E3 ubiquitin-protein ligase Mdm2 (Homo sapiens, UniProt Q00987); assay: enhancers of MDM2-luciferase reporter signal, concentration-effect titration, project on inhibitors of MDM2 ubiquitin ligase, cellular assay, luminescent readout, 384-well plate format (AID 1394); format: functional;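 note: MDM2 E3 inhibitors raise luminescence so EC50 is for signal enhancement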
[11] = Luminescence Cell-Based Dose Retest to Confirm Inhibitors of Cancer Stem Cells. [Related pubchem assays (depositor defined):AID2717, AID2721]; format: functional; details: Homo sapiens
[12] = target: RNA-editing ligase 1, mitochondrial (Trypanosoma brucei brucei, UniProt P86926); assay: TbREL1 ligase inhibitors, dose response, biochemical, fluorescence, Trypanosoma brucei (AID 1117295); format: functional
Chain of RNA-editing ligase 1, mitochondrial (P86926 whole entry): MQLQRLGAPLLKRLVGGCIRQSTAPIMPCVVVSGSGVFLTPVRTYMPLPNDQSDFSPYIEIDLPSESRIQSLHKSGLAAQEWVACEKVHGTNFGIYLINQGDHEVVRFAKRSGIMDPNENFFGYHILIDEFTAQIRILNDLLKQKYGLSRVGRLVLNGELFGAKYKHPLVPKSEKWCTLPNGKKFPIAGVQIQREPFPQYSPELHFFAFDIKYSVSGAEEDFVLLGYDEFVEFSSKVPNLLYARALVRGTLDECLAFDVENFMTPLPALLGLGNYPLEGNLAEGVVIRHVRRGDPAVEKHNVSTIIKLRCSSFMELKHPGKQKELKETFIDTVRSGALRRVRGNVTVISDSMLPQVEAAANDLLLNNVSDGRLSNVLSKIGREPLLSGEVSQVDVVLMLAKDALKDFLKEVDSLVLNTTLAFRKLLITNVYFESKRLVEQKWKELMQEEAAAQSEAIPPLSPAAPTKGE

[13] = cytotoxicity in COV434 cells, dose response, cytotoxicity control for PAX8 inhibitor project, cell-based, plate reader, dry powder, SA7 (AID 743145); format: functional
[14] = IGROV1 ovarian cancer cell cytotoxicity, dose response, PAX8 inhibitor project, plate reader, dry powder samples (AID 743043); format: functional, cell-based; details: IGROV-1
[15] = PAX2 cell-based inhibition, dose response, selectivity assay for PAX8 inhibitor project, plate reader, dry powder samples (AID 743048); format: functional;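 note: HEK293 cells carrying a WT1 promoter luciferase reporter driven by expressed Pax2; potency is for inhibition of Pax2 driven reporter signal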
[16] = cytotoxicity in OV-90 ovarian cancer cells, dose response, PAX8 inhibitor project, cell-based, plate reader, dry powder, SA8 (AID 743149); format: functional
[17] = cytotoxicity dependent on PAX8, dose response, cell-based, plate reader, dry powder (AID 743049); format: functional
[18] = PAX5 activity inhibitors, dose response, selectivity assay for PAX8 inhibitor project, cell-based, plate reader, dry powder samples (AID 743047); format: functional;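 note: HEK293 cells carrying a Pax5 driven CD19 promoter luciferase reporter; potency of inhibitors that lower reporter luminescence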
Paired box protein Pax-8 = Paired box protein Pax-8 (Homo sapiens, UniProt Q06710); assay: inhibitors of PAX8-driven TPO luciferase reporter, dose response, RMG-I cells, cherry-pick (AID 687027); format: functional, cell-based;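 note: luciferase reporter driven by Pax8 target thyroperoxidase promoter measured by SteadyGlo luminescence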
[19] = Dose-response inhibition of insulin secretion in a rat insulinoma line at 5 mM glucose (AID 1117331); format: functional, cell-based; details: INS-1E
cells = format: functional, cell-based; details: INS-1E
[20] = Late stage results for the probe development effort to identify inhibitors of Plasmodium falciparum gametocytes: Luminescence-based cell-based high throughput dose response assay to identify inhibitors of viability of late stage Plasmodium falciparum gametocytes.; format: functional
[21] = HepG2 cell cytotoxicity, dose response, cytotoxicity control, luminescence, dry powder, set 9 (AID 743358); format: functional, cell-based
[22] = control 3'UTR Renilla luciferase suppression, dose response, counter-screen for Shn3 inhibitor project, cell-based, Clone20-Shn3RL, cherry-picked (AID 624133); format: functional
[23] = HeLa 2N DNA content increase, dose response, cell-based, IC50 (AID 1117349); format: functional
[24] = Shn3 3'UTR reporter inhibitors, dose response, cell-based, Clone20 osteoblasts, firefly luciferase, cherry-picked (AID 624132); format: functional;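 note: firefly luciferase luminescence from reporter carrying the Shn3 3'UTR in osteoblasts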
[25] = target: Glucose-6-phosphate 1-dehydrogenase (Homo sapiens, UniProt P11413); assay: human G6PD enzyme inhibitors, dose response, selectivity assay for P. falciparum G6PD inhibitor project, biochemical, fluorescence (AID 504792); format: functional
[26] = HeLa 4N DNA content increase, dose response, cell-based, IC50 (AID 1117351); format: functional
[27] = HepG2 cell cytotoxicity, dose response, cytotoxicity control for Shn3 inhibitor project, CellTiter-Glo, cherry-picked (AID 624134); format: functional, cell-based
[28] = cytotoxicity toward HCT116 cells – cell-based, CellTiter-Glo luminescence, IC50, dose response (AID 1117332); format: functional; details: HCT-116
[29] = HCT116 cell viability decrease, GSK3B pretreatment – CellTiter-Glo, IC50, dose response (AID 1117339); format: functional; details: HCT-116
[30] = cytotoxicity toward Colo320 cells – cell-based, CellTiter-Glo luminescence, IC50, dose response (AID 1117334); format: functional; details: COLO 320
[31] = CellTiter-Glo luminescent dose response of DLD-1 viability loss (AID 1117352); format: functional

Chain of Voltage-gated inwardly rectifying potassium channel KCNH2 (Q12809 whole entry): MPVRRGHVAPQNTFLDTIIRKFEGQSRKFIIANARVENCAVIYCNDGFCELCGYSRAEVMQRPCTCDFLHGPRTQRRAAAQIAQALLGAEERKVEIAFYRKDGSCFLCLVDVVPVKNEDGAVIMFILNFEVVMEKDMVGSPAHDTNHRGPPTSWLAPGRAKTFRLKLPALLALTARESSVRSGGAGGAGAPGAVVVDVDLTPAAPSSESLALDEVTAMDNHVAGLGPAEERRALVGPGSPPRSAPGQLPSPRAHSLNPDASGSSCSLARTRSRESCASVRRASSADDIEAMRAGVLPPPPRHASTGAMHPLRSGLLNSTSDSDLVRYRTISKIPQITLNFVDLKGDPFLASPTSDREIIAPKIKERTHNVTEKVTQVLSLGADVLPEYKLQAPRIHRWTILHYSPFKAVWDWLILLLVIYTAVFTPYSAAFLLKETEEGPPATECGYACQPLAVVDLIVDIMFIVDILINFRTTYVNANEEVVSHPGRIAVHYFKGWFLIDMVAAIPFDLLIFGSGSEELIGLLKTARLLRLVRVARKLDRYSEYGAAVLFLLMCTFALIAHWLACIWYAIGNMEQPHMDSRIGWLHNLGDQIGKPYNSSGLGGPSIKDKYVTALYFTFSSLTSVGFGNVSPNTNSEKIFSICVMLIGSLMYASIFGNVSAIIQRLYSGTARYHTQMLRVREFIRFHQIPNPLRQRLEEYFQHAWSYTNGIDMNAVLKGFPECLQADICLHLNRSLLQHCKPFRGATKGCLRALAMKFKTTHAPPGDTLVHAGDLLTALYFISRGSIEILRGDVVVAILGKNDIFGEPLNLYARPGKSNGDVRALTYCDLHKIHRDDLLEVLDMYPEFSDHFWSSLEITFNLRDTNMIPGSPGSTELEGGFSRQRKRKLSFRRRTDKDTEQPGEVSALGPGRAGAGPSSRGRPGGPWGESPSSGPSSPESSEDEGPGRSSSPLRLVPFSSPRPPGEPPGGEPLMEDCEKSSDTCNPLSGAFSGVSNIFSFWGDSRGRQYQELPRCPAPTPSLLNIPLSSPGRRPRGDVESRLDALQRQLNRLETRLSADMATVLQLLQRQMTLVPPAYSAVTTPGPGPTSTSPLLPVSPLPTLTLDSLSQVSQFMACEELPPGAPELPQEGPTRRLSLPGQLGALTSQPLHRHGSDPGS

Compound: COc1ccc(C(=O)CC(=O)C(=O)Nc2ccccc2OC)cc1
EC50 [1]: 8.33 µM (active)

EC50 [2]: 11.1 µM (not active) | IC50 [3]: > 39.8 µM (not active) | EC50 [4]: 11.6 µM (inactive) | IC50 [5]: 2.07 µM (active) | EC50 [6]: > 79.4 µM (not active)
Compound: Cc1cc2nc(-c3ccc(SCC(=O)Nc4ccc(S(=O)(=O)N5CCCC5)cc4)nc3)[nH]c2cc1C

IC50 [7]: > 30 µM (not active)
Compound: O=C(O)c1sc2cc(C(F)(F)F)cnc2c1-c1cccs1

IC50 [8]: > 50 µM (not active)
Compound: CSc1nc2c(cnn2-c2ccc(C)c(C)c2)c(=O)[nH]1

EC50 [9]: 0.583 µM (active)
Compound: O=C(Nc1cccc(Cl)c1)c1cccnn1

Compound: N#Cc1c(N)nc2c(c1-c1cccc(O)c1)CCCCCC2
EC50 [10]: 13.8 µM (not active) | AC50 [11]: 5.01 µM (active)

IC50 [12]: > 96.6 µM (inactive)
Compound: COc1cccc(C(=O)NCCS(=O)(=O)NC(C)CCc2ccccc2)c1 (stereo not drawn)

Compound: C[C@H](CO)N1C[C@H](C)[C@@H](CN(C)Cc2ccc(C(F)(F)F)cc2)OCCCC[C@H](C)Oc2ccc(NS(=O)(=O)c3ccc(F)cc3)cc2C1=O
AC50 [13]: 55.1 µM (active) | AC50 [14]: 40.5 µM (active) | AC50 [15]: 18.8 µM (active) | AC50 [16]: 68.3 µM (active) | AC50 [17]: 37.7 µM (active) | AC50 [18]: 24.3 µM (active) | AC50 (Paired box protein Pax-8): 6.28 µM (active)

Compound: C#CCOC(C(=O)OCCN(C)C)(c1ccccc1)c1ccccc1
IC50 [19]: 9.26 µM (inactive) | IC50 (cells): 9.67 µM (inactive)

Compound: O=C(NC1=NCCS1)c1cn(-c2ccccc2)nc1-c1cccnc1
IC50 [20]: > 74.4 µM (inactive)

Compound: CN1c2ccc(-c3cccc(F)c3)cc2[C@H]2[C@H](CCN2C(=O)Nc2ccccc2F)[C@H]1CO
AC50 [21]: > 47 µM (inactive)

Compound: O=C(Nc1ccc([N+](=O)[O-])cc1Cl)c1cc(Cl)ccc1O [NICLOSAMIDE]
AC50 [22]: 0.837 µM (active) | IC50 [23]: > 10 µM (inactive) | AC50 [24]: 3 µM (active) | IC50 [25]: > 80 µM (inactive) | IC50 [26]: > 10 µM (inactive) | AC50 [27]: 1.62 µM (active) | IC50 [28]: 0.00144 µM (active) | IC50 [29]: 0.00295 µM (active) | IC50 [30]: 0.00826 µM (active) | IC50 [31]: 0.00349 µM (active)

Source: ChEMBL document CHEMBL1201862, “PubChem BioAssay data set” (2004)
